Legend:
[1] = Vitamin C added to BCA: efficacy of BCA to increase cGP levels; conditions: added to BCA as ascorbic acid
hypertensive rats = conditions: cited from earlier work
[2] = test system: rats with ischemic brain injury; conditions: cited from earlier work

SMILES | effect on the efficacy of BCA to increase the levels of cGP [1] | systemic blood pressure (hypertensive rats) | ischemic brain injury [2]
O=C1O[C@H]([C@@H](O)CO)C(O)=C1O [Vitamin C, ascorbic acid] | negative effect | – | –
O=C1NCC(=O)N2CCC[C@@H]12 [cGP, cyclic glycine-proline] | – | normalises the systemic blood pressure | prevents ischemic brain injury

Reference: patent publication US12216119B2, “IGF-1 analysis, adjustment and disease management of non-neurological and/or neurological conditions” (THE CGP LAB LIMITED, priority 2017, dated 2025)
